Experimental data: US9115159B2, “Phosphate compounds, a process for their preparation and pharmaceutical compositions containing them” (LES LABORATOIRES SERVIER, priority 2013, dated 2015)
Where “and” joins values, the source holds several entries; their conditions need not be identical. Equal values may be shown once. Read-outs that look alike come from different tables or passages of the source.

Columns and labels:
Solubility in water = type: physicochemical
Method: The solubility of compounds of formula (I) in water was measured and compared with that of compounds of formula (I′).
More specifically, 4-[{[3-(6-{[(3S)-3-(morpholin-4-ylmethyl)-3,4-dihydroisoquinolin-2(1H)-yl]carbonyl}-1,3-benzodioxol-5-yl)-5,6,7,8-tetrahydroindolizin-1-yl]carbonyl}-(phenyl)amino]phenyl disodium phosphate (also referred to as the compound of Example 1) was tested and compared to N-(4-hydroxyphenyl)-3-{6-[((3S)-3-(4-morpholinylmethyl)-3,4-dihydro-2(1H)-isoquinolinyl)carbonyl]-1,3-benzodioxol-5-yl}-N-phenyl-5,6,7,8-tetrahydro-1-indolizine carboxamide (also referred to as the drug from Example 1).
The solubilities of the compounds were also measured in a medium buffered to physiological pH (cf. Table 3).

caspase 3 = experiment: Induction of caspase activity in vivo (DEVDase activity in tumour lysates, RS4;11 xenograft); set-up: species or system mice (SCID strain); settings: 100 mg/kg p.o., 16 hours after treatment, RS4;11 tumour lysates, treated mice / control mice
Method: The ability of the compounds of formula (I′) to activate caspase 3 is evaluated in a xenograft model of RS4;11 leukaemia cells.
1×10^7 RS4;11 cells are grafted sub-cutaneously into immunosuppressed mice (SCID strain). 25 to 30 days after the graft, the animals are treated orally with the various compounds. Sixteen hours after treatment, the tumour masses are recovered and lysed, and the caspase 3 activity is measured in the tumour lysates.
This enzymatic measurement is carried out by assaying the appearance of a fluorigenic cleavage product (DEVDase activity, Promega). It is expressed in the form of an activation factor corresponding to the ratio between the two caspase activities: the activity for the treated mice divided by the activity for the control mice.
N-(4-Hydroxyphenyl)-3-{6-[((3S)-3-(4-morpholinylmethyl)-3,4-dihydro-2(1H)-isoquinolinyl)carbonyl]-1,3-benzodioxol-5-yl}-N-phenyl-5,6,7,8-tetrahydro-1-indolizine carboxamide (also referred to as the drug from Example 1) was tested. At a dose of 100 mg/kg p.o., the in vivo caspase activation factor is 29.3.

[1] = Pharmacokinetic profile / in vivo conversion after oral administration to SCID mice (plasma, LC-MS/MS); set-up: species or system female SCID mice; settings: female, mouse, po; for Cmax: read-out: Cmax, compound measured: Drug from Example 1; for AUC(0-t): read-out: AUCt, compound measured: Drug from Example 1; for Tmax: read-out: Tmax, compound measured: Drug from Example 1
Method in brief: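 Female SCID mice were gavaged with phosphate prodrug in EtOH/PEG300/water (10/40/50) at 3 or 25 mg/kg, or in aqueous media (1 mM Na2CO3, water, or 1M Na2CO3) at 3–100 mg/kg. Plasma prodrug and hydroxylated drug were measured by TFC-LC-MS/MS over 0.25–24 h. Non-compartmental analysis used mean concentrations.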

[2] = Drug from Example 1 administered 3 mg/kg p.o., lipid formulation
[3] = Drug from Example 1 administered 25 mg/kg p.o., lipid formulation
[4] = Drug from Example 1 administered 30 mg/kg p.o., lipid formulation
[5] = Drug from Example 1 administered 100 mg/kg p.o., lipid formulation

solubility (Solubility in water): 40 µg/mL and 56.2 µM
Cmax ([1]; Drug from Example 1 administered 3 mg/kg p.o., lipid formulation (ethanol/PEG 300/water 10/40/50)): 295 ng/mL
AUC(0-t) [1, 2]: 225 ng·h/mL
Tmax [1, 2]: 15 min
AUC(0-t) [1, 3]: 20400 ng·h/mL
Cmax [1, 3]: 5070 ng/mL
Tmax [1, 3]: 120 min
AUC(0-t) [1, 4]: 24200 ng·h/mL
Cmax [1, 4]: 8580 ng/mL
Tmax [1, 4]: 60 min
AUC(0-t) [1, 5]: 148000 ng·h/mL
Cmax [1, 5]: 25900 ng/mL
Tmax [1, 5]: 30 min
SMILES: O=C(c1cc(-c2cc3c(cc2C(=O)N2Cc4ccccc4C[C@H]2CN2CCOCC2)OCO3)n2c1CCCC2)N(c1ccccc1)c1ccc(O)cc1 [Drug from Example 1, N-(4-hydroxyphenyl)-3-{6-[((3S)-3-(4-morpholinylmethyl)-3,4-dihydro-2(1H)-isoquinolinyl)carbonyl]-1,3-benzodioxol-5-yl}-N-phenyl-5,6,7,8-tetrahydro-1-indolizine carboxamide]
in vivo caspase activation factor (caspase 3): 29.3
